Measurements published in PubChem BioAssay (NCI).
Values joined by “and” are separate entries in the source; they are usually repeats but may differ in a detail not shown here. Equal entries are not always repeated.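 Results reflect a 48-hour exposure of cells in 96-well plates to compound at five concentrations. GI50 is the concentration that inhibits growth by half. TGI: concentration producing complete growth inhibition.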

How the values were obtained:
Assay in all cases: NCI anticancer screen, dose series, 48 h
NCI-H226 lung = system: NCI-H226 lung
TK-10 renal = system: TK-10 renal
NCI-H522 lung = system: NCI-H522 lung
EKVX NSCLC = system: EKVX NSCLC
CCRF-CEM leukemia = system: CCRF-CEM leukemia
SK-MEL-5 melanoma = system: SK-MEL-5 melanoma
OVCAR-8 ovarian = system: OVCAR-8 ovarian
COLO 205 colon = system: COLO 205 colon
MALME-3M melanoma = system: MALME-3M melanoma
MDA-MB-435 = system: MDA-MB-435

| Structure (SMILES) | GI50 (NCI-H226 lung) | TGI (NCI-H226 lung) | GI50 (TK-10 renal) | TGI (TK-10 renal) | GI50 (NCI-H522 lung) | TGI (NCI-H522 lung) | GI50 (EKVX NSCLC) | TGI (EKVX NSCLC) | GI50 (CCRF-CEM leukemia) | GI50 (SK-MEL-5 melanoma) | TGI (SK-MEL-5 melanoma) | GI50 (OVCAR-8 ovarian) | TGI (OVCAR-8 ovarian) | GI50 (COLO 205 colon) | TGI (COLO 205 colon) | GI50 (MALME-3M melanoma) | TGI (MALME-3M melanoma) | GI50 (MDA-MB-435) | TGI (MDA-MB-435) | TGI (CCRF-CEM leukemia) |
| --- | --- | --- | --- | --- | --- | --- | --- | --- | --- | --- | --- | --- | --- | --- | --- | --- | --- | --- | --- | --- |
| C[C@]12O[C@H](C[C@]1(O)CO)n1c3ccccc3c3c4c(c5c6ccccc6n2c5c31)CNC4=O | 0.267 µM and 0.272 µM | 1.79 µM and 2.05 µM | 0.0223 µM and 0.0189 µM | 1.07 µM and 0.744 µM | 0.0374 µM and 0.135 µM | 1.5 µM and 2.06 µM | 1.56 µM | > 9.15 µM | 0.0501 µM and 0.0461 µM | 0.398 µM and 0.0869 µM | 2.06 µM and 1.84 µM | 0.367 µM and 0.391 µM | > 5.35 µM and 6.53 µM | 0.0916 µM and 0.129 µM | 0.5 µM and 0.87 µM | 0.0324 µM and 0.0298 µM | 1.35 µM and 1.27 µM | 0.044 µM and 0.0371 µM | 3.97 µM and 2.01 µM |  |
| Cc1ccc(Cl)cc1Nc1nc(C(F)(F)F)ccc1C(=O)Nc1cccc(C(F)(F)F)c1 | 6 µM | 25.5 µM | 5.58 µM | 17.8 µM | 1.78 µM | 6.37 µM | 2.7 µM | 10.9 µM | 2.8 µM | 2.18 µM | 4.5 µM | 3.62 µM | 15.8 µM | 1.72 µM | 3.36 µM | 3.04 µM | 12.4 µM | 3.61 µM | 13.9 µM | 11 µM |
| CCSc1oc(-c2ccccc2)nc1[P+](c1ccccc1)(c1ccccc1)c1ccccc1 | 0.286 µM | 1.86 µM | 0.258 µM | 2.66 µM | 0.261 µM | 1.09 µM | 0.289 µM | 1.84 µM | 0.32 µM | 0.164 µM | 0.315 µM | 0.275 µM | 12.3 µM | 0.186 µM | 0.42 µM | 0.287 µM | 1.3 µM | 0.308 µM | 1.12 µM | 3.21 µM |
| Oc1ccc2oc3ncc(Cl)c(-c4ccccc4)c3c2c1 | > 100 µM | > 100 µM | > 100 µM | > 100 µM | > 100 µM | > 100 µM | > 100 µM | > 100 µM | 21.2 µM | > 100 µM | > 100 µM | > 100 µM | > 100 µM | > 100 µM | > 100 µM | > 100 µM | > 100 µM | > 100 µM | > 100 µM | 63.2 µM |
| C=C(C=O)C1CC(=O)C(C(=O)OC)[C@@H]2O[C@@](C)(CC2=O)C[C@@H]2OC(=O)[C@]3(O[C@@H]23)[C@@H](C(=O)OC)C1 (stereo not given in full) | 24.9 µM | > 100 µM | 24.7 µM | 42 µM | 7.03 µM | 41.5 µM | 27.2 µM | 95.1 µM | 5.81 µM | 17 µM | 38.5 µM | 17.9 µM | 62.4 µM | 17.2 µM | > 100 µM |  |  | 14.3 µM | 33 µM | > 100 µM |
| O=C1c2ccccc2C(=O)c2c1ccc(C(Br)Br)c2[N+](=O)[O-] | 0.727 µM | 2.62 µM | 1.95 µM | 3.84 µM | 1.84 µM | 3.46 µM | 1.96 µM | 4.58 µM | 0.582 µM | 1.77 µM | 3.73 µM | 1.95 µM | 4.35 µM |  |  | 1.94 µM | 3.71 µM | 1.76 µM | 3.29 µM | 2.53 µM |
